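Each compound was tested at five concentrations against cells in 96-well plates for 48 hours. GI50 marks 50% less growth. TGI: total growth inhibition.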
Assays:
Assay in all cases: NCI anticancer screen, dose series, 48 h
[1] = system: T-47D breast
[2] = system: RPMI-8226 leukemia
[3] = system: HCT-116 colon
[4] = system: CCRF-CEM leukemia
[5] = system: BT-549 breast
[6] = system: SK-MEL-28 melanoma
[7] = system: MALME-3M melanoma
[8] = system: SNB-19 CNS
[9] = system: NCI-H23 lung
[10] = system: K-562 leukemia

Row | Compound | GI50 [1] [µM] | TGI [1] [µM] | GI50 [2] [µM] | TGI [2] [µM] | GI50 [3] [µM] | TGI [3] [µM] | GI50 [4] [µM] | TGI [4] [µM] | GI50 [5] [µM] | TGI [5] [µM] | GI50 [6] [µM] | TGI [6] [µM] | GI50 [7] [µM] | TGI [7] [µM] | GI50 [8] [µM] | TGI [8] [µM] | GI50 [9] [µM] | TGI [9] [µM] | GI50 [10] [µM] | TGI [10] [µM]
1 | CC[C@]12C=CCN3CC[C@@]4(c5ccc(OC)cc5N(C)[C@H]4[C@@](O)(C(=O)OC)[C@@H]1OC(=O)CCC(=O)N[C@H](Cc1c[nH]c4ccccc14)C(=O)OC)[C@@H]32 | 11 | 30.3 | 3.63 | 44.7 | 3.02 | > 100 | 3.34 | > 100 | 7.68 | 41 | 2.21 | 5.44 | 2.6 | 8.09 | 4.74 | 48.8 | 13.5 | 54.3 | 3.56 | > 100
2 | Cc1cc(NNC(=O)c2ccccc2O)nc(Nc2nc3ccccc3o2)n1 | 2.92 | 21.5 | 1.85 | 13.9 | 1.06 | 7.47 | – | 11.8 | 4.52 | 28.2 | 1.64 | 13.3 | 2.98 | 15.5 | 1.86 | 21.3 | 3.99 | 37.8 | 2.31 | > 66.2
3 | Cc1cn2c(/C=C3/C(=O)Nc4ccc(F)cc43)c(C)nc2s1 | 10.2 | > 50 | 20.3 | > 50 | 2.92 | > 50 | 14.8 | > 50 | 8.52 | > 50 | 4.11 | > 50 | 7.26 | > 50 | 5.56 | > 50 | 7.85 | > 50 | 1.72 | > 50
4 | COc1cc2ncn(-c3cc(OCc4ccccc4C(F)(F)F)c(C(C)=O)s3)c2cc1OC | > 25 | > 25 | > 25 | > 25 | > 25 | > 25 | > 25 | > 25 | > 25 | > 25 | > 25 | > 25 | > 16.8 | > 25 | > 25 | > 25 | > 25 | > 25 | > 25 | > 25
5 | CC(O)CN1c2ccccc2Sc2ccc(Cl)cc21 (stereo unspecified) | – | > 10 | – | > 10 | – | > 10 | – | > 10 | – | > 10 | – | > 10 | – | > 10 | – | > 10 | – | > 10 | – | > 10
6 | Cc1nnc(-c2ccc(C)c(-c3ccc(C(=O)NCc4ccc(Cl)cc4)cc3)c2)o1 | 4.13 | > 19.2 | 10.2 | > 25 | 12.6 | > 25 | 14.7 | > 25 | 14.7 | > 25 | 14.3 | > 25 | 6.15 | 24.9 | > 22.6 | > 25 | 11.3 | > 25 | 7.64 | > 25
7 | CCOC(=O)c1cc(-c2ccc(OC)c(OC)c2)[nH]c1N/N=C/c1c(Cl)cccc1Cl | 5.98 | 55.4 | 3.31 | > 37.5 | 1.39 | 5.44 | 2.22 | > 100 | 2.49 | 12.5 | 1.12 | > 100 | 2.88 | 16.7 | 2.6 | 34.2 | 2.97 | 14 | 1.69 | > 100
8 | O=C(Nc1ccc2c(c1)OCO2)C(=O)c1c[nH]c2cc(F)ccc12 | 1.75 | > 100 | 50 | > 100 | 11.2 | > 100 | 5.33 | > 100 | 9.35 | 98.7 | 2.05 | 5.54 | 3 | 8.61 | 7.74 | 77.3 | 13.9 | 55.4 | 0.6 | 20.8
9 | O=C1C(=O)N(c2cccc(C(F)(F)F)c2)C(=O)C(=O)C1c1nc2ccccc2s1 | – | > 100 | – | > 100 | – | > 100 | – | 65.1 | – | > 100 | – | > 100 | – | > 100 | – | > 100 | – | > 100 | – | > 100
10 | CSc1ccc(C2=NN(C(C)=O)C(c3ccc(F)cc3)C2)cc1 (stereo unspecified) | 11.5 | 41.4 | 12 | 32.5 | 7.11 | 20.1 | 0.617 | 24.5 | 20.3 | 40.2 | 17 | 34.2 | 15.8 | 31.3 | 8.19 | 37 | 16.5 | 34.9 | 14.5 | 36
11 | CN1CCN(Cc2ccc(NC(=O)c3cncc(C#Cc4cnn5ccccc45)c3)cc2C(F)(F)F)CC1 | 1.4 | 5.78 | 0.57 | 1.82 | 0.294 | 1.47 | 0.202 | 1.67 | 1.47 | 4.11 | 1.22 | 3.53 | 0.604 | 1.45 | 1.58 | 5.03 | 0.655 | 1.97 | 0.005 | 3.16
12 | COC(=O)C(=O)C(C(=O)C(=O)Nc1ccc(C)cc1)c1nc2ccc(C(=O)c3ccccc3)cc2[nH]c1=O (stereo unspecified) | – | > 100 | – | > 100 | – | > 100 | – | > 100 | – | > 100 | – | > 100 | – | > 100 | – | > 100 | – | > 100 | – | > 100
13 | CN(O)C(=S)c1ccccc1 | – | > 100 | – | 1.68 | – | 5.07 | – | 4.99 | – | > 100 | – | > 100 | – | > 100 | – | > 100 | – | 19.8 | – | > 100
14 | O=C(Cn1c(C(=O)c2ccccc2)nc2ccccc21)c1ccc(F)cc1 | 3.38 | > 100 | 3.47 | > 52.5 | 3.28 | > 100 | 5.75 | > 100 | 9.76 | > 100 | 7.07 | > 100 | 11.1 | > 100 | 25.2 | > 100 | 19.4 | > 100 | 2.86 | > 100
15 | O=c1c(-c2ccc(O)cc2)coc2cc(OC3OC(CO)C(O)C(O)C3O)cc(O)c12 (stereo unspecified) | > 100 | > 100 | > 10 | > 100 | – | > 100 | > 10 | > 100 | – | > 100 | > 100 | > 100 | > 100 | > 100 | – | > 100 | > 100 | > 100 | > 100 | > 100
16 | CC[C@@H](C)Nc1cc(C(=O)NC2CC3CCC(C2)N3c2ccc(C(=O)C3CC3)cn2)c(C)cc1C(N)=O (stereo partly specified) | 0.0378 | 36 | 0.0538 | > 74.3 | 0.03 | > 100 | 0.0482 | > 100 | 5.54 | > 84.9 | 0.0519 | > 100 | 0.0383 | > 75.5 | 0.0604 | > 100 | 0.0589 | > 100 | 0.0378 | > 100

Source: PubChem BioAssay (NCI)
